Data: patent US10206937B2, “Boronic acid derivatives and therapeutic uses thereof” (Qpex Biopharma, Inc., priority 2014, dated 2019)

Test system: strains of Enterobacteriaceae producing various carbapenemases (class A, D and B; 104 strains)
Assay: Antibiotics potentiation by Compound 27 (MIC; meropenem, doripenem, ertapenem, cefepime)
Type: cell-based
Settings: + 27 = with Compound 27 at fixed 4 μg/ml

With `C[C@@H](O)[C@H]1C(=O)N2C(C(=O)O)=C(S[C@@H]3CN[C@H](C(=O)N(C)C)C3)[C@H](C)[C@H]12` [M] the MIC (strain KP1081 Klebsiella pneumoniae (NDM-1, TEM-1, SHV-11, CMY-6, CTX-M-15)) was “Z (MIC of greater than 10 μg/mL)”, the MIC (strain KP1082 Klebsiella pneumoniae (KPC-2, SHV-1)) was “Y (MIC of 1 μg/mL to 10 μg/mL)” and the MIC (strain KP1083 Klebsiella pneumoniae (KPC-3, SHV-1, TEM-1)) was “Y (MIC of 1 μg/mL to 10 μg/mL)”. The MIC (strain KP1084 Klebsiella pneumoniae (KPC-3, SHV-11, TEM-1)) was “Z (MIC of greater than 10 μg/mL)”, the MIC (strain KP1086 Klebsiella pneumoniae (OXA-48, CTX-M-15, TEM, SHV)) was “Z (MIC of greater than 10 μg/mL)” and the MIC (strain KP1087 Klebsiella pneumoniae (KPC-2, CTX-M-15, SHV-11, TEM-1)) was “Z (MIC of greater than 10 μg/mL)”. The MIC (strain KP1088 Klebsiella pneumoniae (KPC-3, SHV-11, TEM-1)) was “Y (MIC of 1 μg/mL to 10 μg/mL)”, the MIC (strain KP1089 Klebsiella pneumonias (OXA-181, CTX-M-15, TEM, SHV)) was “Y (MIC of 1 μg/mL to 10 μg/mL)” and the MIC (strain KP1095 Klebsiella pneumoniae (KPC-2 TEM-1 SHV-1)) was “Y (MIC of 1 μg/mL to 10 μg/mL)”. For the same molecule, the MIC (strain KP1096 Klebsiella pneumoniae (KPC-2 TEM-181 SHV-11)) was “Y (MIC of 1 μg/mL to 10 μg/mL)”, the MIC (strain KP1097 Klebsiella pneumonias (IMP-1)) was “Z (MIC of greater than 10 μg/mL)” and the MIC (strain KP1098 Klebsiella pneumoniae (IMP-26)) was “Z (MIC of greater than 10 μg/mL)”. The MIC (strain KP1104 Klebsiella pneumoniae (KPC TEM)) was “Z (MIC of greater than 10 μg/mL)”, the MIC (strain KP1105 Klebsiella pneumoniae (KPC TEM SHV)) was “Z (MIC of greater than 10 μg/mL)” and the MIC (strain KP1159 Klebsiella pneumoniae (SHV-1(2b); CTX-M-15; IMP-4)) was “Z (MIC of greater than 10 μg/mL)”. The MIC (strain KP1160 Klebsiella pneumoniae (SHV-28(2be); CTX-M-15; IMP-26)) was “Z (MIC of greater than 10 μg/mL)”, the MIC (strain KP1161 Klebsiella pneumoniae (NDM-1)) was “Z (MIC of greater than 10 μg/mL)” and the MIC (strain KP1164 Klebsiella pneumoniae (SHV-12(2be); VIM-1)) was “Z (MIC of greater than 10 μg/mL)”. The MIC (strain KP1165 Klebsiella pneumoniae (SHV-11(2b); CTX-M-15; VIM-27)) was “Z (MIC of greater than 10 μg/mL)”, the MIC (strain KP1166 Klebsiella pneumoniae (SHV-5(2be); VIM-26)) was “Z (MIC of greater than 10 μg/mL)” and the MIC (strain KP1167 Klebsiella pneumoniae (SHV-12(2be); VIM-1)) was “X (MIC of less than 1 μg/mL)”. For the same molecule, the MIC (strain KP1169 Klebsiella pneumoniae (SHV-11(2b); VIM-1)) was “Z (MIC of greater than 10 μg/mL)”, the MIC (strain KP1170 Klebsiella pneumoniae (SHV-11(2b); CTX-M-15; NDM-1)) was “Z (MIC of greater than 10 μg/mL)” and the MIC (strain KP1172 Klebsiella pneumoniae (SHV-31(2be); DHA-1; VIM-1)) was “Y (MIC of 1 μg/mL to 10 μg/mL)”. For the same molecule, the MIC (strain KP1173 Klebsiella pneumoniae (TEM-33(2br); CTX-M-15; IMP-1)) was “Y (MIC of 1 μg/mL to 10 μg/mL)”, the MIC (strain KP1174 Klebsiella pneumoniae (CTX-M-14; IMP-1)) was “Y (MIC of 1 μg/mL to 10 μg/mL)” and the MIC (strain KP1175 Klebsiella pneumoniae (SHV-OSBL(2b); VIM-1)) was “Z (MIC of greater than 10 μg/mL)”. For the same molecule, the MIC (strain KP1177 Klebsiella pneumoniae (SHV-OSBL(2b), TEM-OSBL(2b); CTX-M-15; NDM-1)) was “Z (MIC of greater than 10 μg/mL)”, the MIC (strain KP1178 Klebsiella pneumoniae (SHV-OSBL(2b;) TEM-OSBL(2b); CTX-M-15; NDM-1)) was “Z (MIC of greater than 10 μg/mL)” and the MIC (strain KP1179 Klebsiella pneumoniae (SHV-12(2be), TEM-OSBL(2b); CTX-M-15; NDM-7)) was “Z (MIC of greater than 10 μg/mL)”. The MIC (strain KP1180 Klebsiella pneumoniae (SHV-OSBL(2b), TEM-OSBL(2b); CTX-M-15; DHA-1; IMP-26)) was “Y (MIC of 1 μg/mL to 10 μg/mL)”, the MIC (strain KP1181 Klebsiella pneumoniae (SHV-OSBL(2b); CTX-M-15; IMP-26)) was “Y (MIC of 1 μg/mL to 10 μg/mL)” and the MIC (strain KP1183 Klebsiella pneumoniae (SHV-OSBL(2b), TEM-OSBL(2b); CTX-M-15; NDM-1)) was “Z (MIC of greater than 10 μg/mL)”. For the same molecule, the MIC (strain KP1184 Klebsiella pneumoniae (SHV-OSBL(2b); IMP-1)) was “Y (MIC of 1 μg/mL to 10 μg/mL)”, the MIC (strain KP1185 Klebsiella pneumoniae (SHV-OSBL(2b), TEM-OSBL(2b); IMP-4)) was “Z (MIC of greater than 10 μg/mL)” and the MIC (strain KP1186 Klebsiella pneumoniae (CTX-M-15; NDM-1)) was “Z (MIC of greater than 10 μg/mL)”. The MIC (strain KP1187 Klebsiella pneumoniae (SHV-55(2be), TEM-OSBL(2b); CTX-M-15; NDM-1)) was “Z (MIC of greater than 10 μg/mL)”, the MIC (strain KP1188 Klebsiella pneumoniae (SHV-OSBL(2b); CTX-M-15; NDM-1)) was “Z (MIC of greater than 10 μg/mL)” and the MIC (strain KP1189 Klebsiella pneumoniae (TEM-OSBL(2b); CTX-M-15; CTX-M-27; NDM-1)) was “Z (MIC of greater than 10 μg/mL)”. For the same molecule, the MIC (strain KPM1123 Klebsiella pneumoniae (KPC-2 TEM SHV)) was “Z (MIC of greater than 10 μg/mL)”, the MIC (strain KPM1202 Klebsiella pneumoniae (KPC SHV TEM)) was “Y (MIC of 1 μg/mL to 10 μg/mL)” and the MIC (strain KPM1203 Klebsiella pneumoniae (KPC SHV TEM)) was “Y (MIC of 1 μg/mL to 10 μg/mL)”. The MIC (strain KPM1344 Klebsiella pneumoniae (VIM-1)) was “Y (MIC of 1 μg/mL to 10 μg/mL)”, the MIC (strain KPM1345 Klebsiella pneumoniae (VIM-1 SHV)) was “Z (MIC of greater than 10 μg/mL)” and the MIC (strain KPM1347 Klebsiella pneumoniae (NDM-1 SHV CTX-M-15)) was “Z (MIC of greater than 10 μg/mL)”. For the same molecule, the MIC (strain KX1017 Klebsiella oxytoca (KPC-2, OXA-2, SHV-30)) was “Y (MIC of 1 μg/mL to 10 μg/mL)”, the MIC (strain KX1018 Klebsiella oxytoca (KPC-2, SHV-40, OXY-1)) was “Y (MIC of 1 μg/mL to 10 μg/mL)” and the MIC (strain KX1019 Klebsiella oxytoca (KPC-2, OXA-2)) was “Y (MIC of 1 μg/mL to 10 μg/mL)”. For the same molecule, the MIC (strain PM1024 Proteus mirabilis (TEM-1(2b); CMY-16; VIM-1)) was “Y (MIC of 1 μg/mL to 10 μg/mL)”, the MIC (strain PM1026 Proteus mirabilis (DHA-1; IMP-26)) was “Z (MIC of greater than 10 μg/mL)” and the MIC (strain PM1027 Proteus mirabilis (VIM-5)) was “Z (MIC of greater than 10 μg/mL)”. For the same molecule, the MIC (strain SM1023 Serratia marcescens (VIM-4)) was “Z (MIC of greater than 10 μg/mL)”.
